The test system of assay [1] is THP-1 cells. As to the kind of experiment: Propidium iodide (PI) uptake / cell membrane integrity in TBZ-induced necroptosis. It is filed as cell-based, human. On the procedure: Cells were pretreated with Z-VAD (invivoGen, tlrl-vad) and a compound for 1 hour, and necroptosis was induced with TNF-α (ATGen, TNF0501) and BV6 (Biovision, B1332-5) for the indicated time. The prepared cells were appropriately treated according to analysis (Z-VAD: carbobenzoxy-valyl-alanyl-aspartyl, TNF-α: tumor necrosis factor-α, BV6: 4,4′-(1,6-hexanediyl)bis[N-methyl-L-alanyl-(2S)-2-cyclohexylglycyl-L-prolyl-β-phenyl-L-phenylalaninamide)
Cells were plated in a flat, transparent-bottomed, black-walled 96-well plate, and subjected to 7-hour chemical treatment and necroptosis induction, and then PI (BD Biosciences, 556463) was added to a final concentration of 50 μg/ml. After incubation for 10 minutes under the original culture conditions, the cells were centrifuged at 400×g for 5 minutes. The emission wavelength at 617 nm following excitation at 530 nm was measured by real-time fluorescence monitoring on a Varioskan Flash 3001 plate reader. Data collection was performed at 37° C. (FIG. 1A).
As a first screening process, to investigate changes in cell membrane integrity by measuring PI uptake (Experimental Method 1-8), a compound in which the PI uptake had been reduced to less than 30% of the signal intensity upon TBZ treatment was selected.
After treating TBZ+APO-treated THP-1 cells with PI for 10 minutes, the PI taken up by the cells was measured on a microplate reader. […]

Assay [2] concerns the target T1, MLKL protein (Homo sapiens, UniProt Q8NB16).
T1 construct: purchased Abcam ab241453
T1 sequence (Q8NB16 1-471): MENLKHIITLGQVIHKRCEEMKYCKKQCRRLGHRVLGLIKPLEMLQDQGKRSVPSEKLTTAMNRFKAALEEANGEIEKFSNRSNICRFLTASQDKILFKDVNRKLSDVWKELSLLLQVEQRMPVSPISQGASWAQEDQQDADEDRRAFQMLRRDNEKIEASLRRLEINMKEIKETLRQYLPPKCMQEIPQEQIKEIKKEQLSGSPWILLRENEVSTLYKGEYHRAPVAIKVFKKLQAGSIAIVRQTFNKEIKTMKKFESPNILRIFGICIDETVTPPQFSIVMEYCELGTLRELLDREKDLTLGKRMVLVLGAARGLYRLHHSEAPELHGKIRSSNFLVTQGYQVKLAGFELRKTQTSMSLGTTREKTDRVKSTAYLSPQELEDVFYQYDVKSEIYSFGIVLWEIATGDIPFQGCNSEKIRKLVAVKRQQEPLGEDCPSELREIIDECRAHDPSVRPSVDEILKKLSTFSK
As to the kind of experiment: Surface plasmon resonance (SPR) analysis, binding to MLKL protein. To be noted: MLKL immobilized on CM5 chip, Biacore T200, 25° C., 10 mM HEPES pH 7.4. The protocol: The interaction between MLKL and apomorphine (=APO) was detected through surface plasmon resonance (SPR) analysis using Biacore T200 (GE Healthcare). For pH scouting, a buffer consisting of 10 mM sodium acetate (pH 4.0 to 6.0) was used. MLKL protein (Abcam, ab241453), and MLKL N-term (amino acids 1-154) protein that had been purified in a laboratory were immobilized on the surface of a sensor chip CM5 (GE Healthcare) under scouted buffer conditions. To deduce an Rligand value, a coupling process was performed based on the molecular weights of MLKL, MLKL N-term domain (MW ligand), and APO (MW analyte). Oxidized (24 hr, RT incubation) and reduced (+DTT(DL-dithiothreitol)) forms of APO were injected into a running buffer (flow rate: 10 μl/min) consisting of 10 mM HEPES (pH 7.4) at 25° C. A sensorgram was recorded and analyzed in real time using control software provided by the Biacore T200 system itself. Six or more concentrations of APO were used in combination, and each KD value was derived. All run data was calculated using BIAevaluation Software (GE Healthcare).
SPR analysis was used to analyze the interaction pattern between APO and the MLKL protein (Experimental Method 1-10). […] Here, the analysis was performed by binding MLKL and the MLKL N-term domain protein immobilized on a CM5 chip with APO having six concentrations.
For orientation: Surface plasmon resonance follows binding to a sensor surface in real time, without labels.

The IC50 is the midpoint of a concentration-inhibition curve. By Kd is commonly meant a measure of binding affinity in units of concentration. Consider `CN1CCc2cccc3c2[C@H]1Cc1ccc(O)c(O)c1-3` [APO, apomorphine], for which the 50% inhibitory concentration (IC50) in assay [1] (Homo sapiens, THP-1, concentration-dependent APO treatment, FIG. 1D, read-out: IC50, change in cell membrane integrity) worked out at 5.7 µM. Besides, the PI uptake rate result in assay [1] (THP-1 cells treated with TBZ (TNF-α+BV6+Z-VAD)+APO, PI 10 minutes, FIG. 1A) is on record as “effectively reduced”. Further, in assay [2], the Kd was determined as 0.0127 µM.
